Several values for one entry are separate records, joined by “and”; a condition that tells them apart may be missing. Identical values can stand only once.
Assays:
[1] = biological target: T1, Ephrin type-B receptor 4 (Homo sapiens) (UniProt P54760); test: Enzymatic radiometric [Km ATP] KinaseProfiler LeadHunter assay, kinase: EphB4, catalogue number: 14-554KP The assay has been performed by Eurofins Discovery.; conditions: ATP concentration 10.0 uM, Test compound concentration 10.0 uM
T1 sequence (whole entry): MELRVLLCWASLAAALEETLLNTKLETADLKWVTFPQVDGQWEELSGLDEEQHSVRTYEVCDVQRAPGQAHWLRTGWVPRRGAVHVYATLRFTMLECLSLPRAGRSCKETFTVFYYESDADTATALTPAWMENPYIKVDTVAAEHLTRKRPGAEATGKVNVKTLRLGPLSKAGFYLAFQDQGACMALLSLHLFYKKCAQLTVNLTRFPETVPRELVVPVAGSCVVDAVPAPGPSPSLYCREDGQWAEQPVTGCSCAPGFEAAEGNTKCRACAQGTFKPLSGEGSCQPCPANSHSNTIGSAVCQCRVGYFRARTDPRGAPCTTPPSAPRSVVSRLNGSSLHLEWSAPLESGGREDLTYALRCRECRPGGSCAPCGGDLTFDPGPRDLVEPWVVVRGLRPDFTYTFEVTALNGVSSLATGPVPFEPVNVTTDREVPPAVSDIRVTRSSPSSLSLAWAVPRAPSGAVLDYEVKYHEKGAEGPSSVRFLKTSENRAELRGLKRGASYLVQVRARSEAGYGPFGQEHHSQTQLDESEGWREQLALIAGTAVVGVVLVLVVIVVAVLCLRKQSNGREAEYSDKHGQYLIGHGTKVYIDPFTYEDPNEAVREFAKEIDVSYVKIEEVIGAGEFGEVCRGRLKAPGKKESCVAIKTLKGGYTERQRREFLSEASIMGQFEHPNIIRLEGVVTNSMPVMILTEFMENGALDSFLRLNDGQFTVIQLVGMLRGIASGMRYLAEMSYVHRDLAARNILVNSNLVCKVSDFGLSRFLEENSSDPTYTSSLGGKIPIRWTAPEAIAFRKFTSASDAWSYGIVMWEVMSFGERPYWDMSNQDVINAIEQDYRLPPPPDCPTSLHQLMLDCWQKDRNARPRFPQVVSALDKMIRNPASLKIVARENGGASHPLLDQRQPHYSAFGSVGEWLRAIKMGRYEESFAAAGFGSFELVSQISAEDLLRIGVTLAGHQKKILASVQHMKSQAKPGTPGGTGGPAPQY

[2] = biological target: T2, Interleukin-1 receptor-associated kinase 4 (Homo sapiens) (UniProt Q9NWZ3); test: Enzymatic radiometric [Km ATP] KinaseProfiler LeadHunter assay, kinase: IRAK4, catalogue number: 14-599KP The assay has been performed by Eurofins Discovery.; conditions: ATP concentration 200.0 uM, Test compound concentration 10.0 uM
T2 sequence (whole entry): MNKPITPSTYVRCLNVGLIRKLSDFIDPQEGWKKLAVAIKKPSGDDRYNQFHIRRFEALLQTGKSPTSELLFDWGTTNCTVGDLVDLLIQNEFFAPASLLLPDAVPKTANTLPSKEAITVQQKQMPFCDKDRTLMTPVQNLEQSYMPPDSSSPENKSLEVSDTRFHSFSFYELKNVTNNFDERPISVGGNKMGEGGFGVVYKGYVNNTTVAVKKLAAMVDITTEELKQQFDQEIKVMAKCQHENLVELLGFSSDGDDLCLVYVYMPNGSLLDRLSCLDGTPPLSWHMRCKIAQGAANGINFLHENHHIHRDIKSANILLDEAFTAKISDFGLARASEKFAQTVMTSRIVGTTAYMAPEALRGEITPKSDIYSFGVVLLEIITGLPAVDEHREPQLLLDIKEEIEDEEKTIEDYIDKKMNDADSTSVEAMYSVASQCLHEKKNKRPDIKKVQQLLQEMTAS

[3] = biological target: MAP kinase-activated protein kinase 2 (Homo sapiens) (UniProt P49137); test: Enzymatic radiometric [Km ATP] KinaseProfiler LeadHunter assay, kinase: MAPKAP-K2, catalogue number: 14-337KP The assay has been performed by Eurofins Discovery.; conditions: ATP concentration 90.0 uM, Test compound concentration 10.0 uM
[4] = biological target: Dual specificity mitogen-activated protein kinase kinase 1 (Homo sapiens) (UniProt Q02750); test: Enzymatic radiometric [Km ATP] KinaseProfiler LeadHunter assay, kinase: MEK1, catalogue number: 14-429KP The assay has been performed by Eurofins Discovery.; conditions: ATP concentration 10.0 uM, Test compound concentration 10.0 uM
[5] = biological target: Mitogen-activated protein kinase kinase kinase 9 (Homo sapiens) (UniProt P80192); test: Enzymatic radiometric [Km ATP] KinaseProfiler LeadHunter assay, kinase: MLK1, catalogue number: 14-690KP The assay has been performed by Eurofins Discovery.; conditions: ATP concentration 45.0 uM, Test compound concentration 10.0 uM
[6] = biological target: Serine/threonine-protein kinase mTOR (Homo sapiens) (UniProt P42345); test: Enzymatic radiometric [Km ATP] KinaseProfiler LeadHunter assay, kinase: mTOR, catalogue number: 14-769KP The assay has been performed by Eurofins Discovery.; conditions: ATP concentration 70.0 uM, Test compound concentration 10.0 uM
[7] = biological target: Serine/threonine-protein kinase PAK 2 (Homo sapiens) (UniProt Q13177); test: Enzymatic radiometric [Km ATP] KinaseProfiler LeadHunter assay, kinase: PAK2, catalogue number: 14-481KP The assay has been performed by Eurofins Discovery.; conditions: ATP concentration 90.0 uM, Test compound concentration 10.0 uM
[8] = biological target: Serine/threonine-protein kinase pim-1 (Homo sapiens) (UniProt P11309); test: Enzymatic radiometric [Km ATP] KinaseProfiler LeadHunter assay, kinase: Pim-1, catalogue number: 14-573KP The assay has been performed by Eurofins Discovery.; conditions: ATP concentration 90.0 uM, Test compound concentration 10.0 uM
[9] = biological target: SRSF protein kinase 1 (Homo sapiens) (UniProt Q96SB4); test: Enzymatic radiometric [Km ATP] KinaseProfiler LeadHunter assay, kinase: SRPK1, catalogue number: 14-564KP The assay has been performed by Eurofins Discovery.; conditions: ATP concentration 10.0 uM, Test compound concentration 10.0 uM
[10] = biological target: PI3K p110 beta/p85 alpha (Homo sapiens) (UniProt P27986+P42338); test: Enzymatic radiometric [Km ATP] KinaseProfiler LeadHunter assay, kinase: PI3 Kinase (p110-beta/p85-alpha), catalogue number: 14-603KP The assay has been performed by Eurofins Discovery.; assay type: protein-complex assay; conditions: ATP concentration 200.0 uM, Test compound concentration 10.0 uM
Sequence of PI3K p110 beta/p85 alpha (Homo sapiens) (P27986 2-724 limits assumed): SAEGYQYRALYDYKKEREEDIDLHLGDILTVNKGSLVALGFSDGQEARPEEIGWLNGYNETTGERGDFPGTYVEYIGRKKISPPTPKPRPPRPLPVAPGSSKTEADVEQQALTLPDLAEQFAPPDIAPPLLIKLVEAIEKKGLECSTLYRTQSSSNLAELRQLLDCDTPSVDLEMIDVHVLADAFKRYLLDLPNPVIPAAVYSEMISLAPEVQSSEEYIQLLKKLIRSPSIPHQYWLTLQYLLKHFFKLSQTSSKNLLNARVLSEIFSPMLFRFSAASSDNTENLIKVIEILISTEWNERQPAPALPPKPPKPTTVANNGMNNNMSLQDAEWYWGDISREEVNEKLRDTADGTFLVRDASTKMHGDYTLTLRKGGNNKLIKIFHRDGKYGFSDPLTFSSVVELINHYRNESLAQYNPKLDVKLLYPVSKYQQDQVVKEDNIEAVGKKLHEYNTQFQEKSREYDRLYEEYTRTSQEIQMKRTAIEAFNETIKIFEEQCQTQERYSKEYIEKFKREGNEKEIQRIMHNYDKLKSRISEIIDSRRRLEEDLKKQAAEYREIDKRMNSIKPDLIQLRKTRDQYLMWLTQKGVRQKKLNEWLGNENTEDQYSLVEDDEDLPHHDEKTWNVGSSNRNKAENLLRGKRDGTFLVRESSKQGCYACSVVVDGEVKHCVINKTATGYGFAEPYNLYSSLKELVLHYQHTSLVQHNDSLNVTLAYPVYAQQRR
Sequence of PI3K p110 beta/p85 alpha (Homo sapiens) (P42338 whole entry partner): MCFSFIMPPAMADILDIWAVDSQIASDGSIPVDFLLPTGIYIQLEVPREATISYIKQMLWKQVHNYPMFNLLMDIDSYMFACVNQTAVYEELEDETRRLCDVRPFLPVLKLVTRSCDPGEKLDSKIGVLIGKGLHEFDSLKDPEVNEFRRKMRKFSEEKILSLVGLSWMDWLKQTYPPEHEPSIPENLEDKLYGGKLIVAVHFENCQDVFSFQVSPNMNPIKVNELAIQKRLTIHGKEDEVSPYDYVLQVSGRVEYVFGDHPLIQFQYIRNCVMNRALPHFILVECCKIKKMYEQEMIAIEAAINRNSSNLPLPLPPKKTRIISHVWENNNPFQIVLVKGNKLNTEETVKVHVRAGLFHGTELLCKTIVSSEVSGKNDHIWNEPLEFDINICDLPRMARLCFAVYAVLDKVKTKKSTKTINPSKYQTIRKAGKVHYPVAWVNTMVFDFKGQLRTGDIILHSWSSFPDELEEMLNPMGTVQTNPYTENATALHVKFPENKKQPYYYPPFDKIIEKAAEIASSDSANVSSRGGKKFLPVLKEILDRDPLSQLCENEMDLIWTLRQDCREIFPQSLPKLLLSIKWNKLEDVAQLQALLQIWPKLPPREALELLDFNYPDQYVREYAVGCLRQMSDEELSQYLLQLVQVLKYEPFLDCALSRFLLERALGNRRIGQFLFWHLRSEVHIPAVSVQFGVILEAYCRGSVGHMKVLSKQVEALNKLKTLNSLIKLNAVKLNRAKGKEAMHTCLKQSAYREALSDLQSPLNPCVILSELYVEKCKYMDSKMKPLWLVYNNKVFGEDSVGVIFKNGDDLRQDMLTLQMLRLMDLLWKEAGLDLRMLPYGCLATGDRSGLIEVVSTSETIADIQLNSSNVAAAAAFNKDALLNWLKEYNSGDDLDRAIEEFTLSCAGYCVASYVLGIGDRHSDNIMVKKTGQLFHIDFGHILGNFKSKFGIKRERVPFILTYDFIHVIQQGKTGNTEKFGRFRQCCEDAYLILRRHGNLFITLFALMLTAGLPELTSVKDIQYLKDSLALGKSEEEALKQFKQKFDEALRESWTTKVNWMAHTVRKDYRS

Sequence of Dual specificity mitogen-activated protein kinase kinase 1 (Homo sapiens) (Q02750 whole entry): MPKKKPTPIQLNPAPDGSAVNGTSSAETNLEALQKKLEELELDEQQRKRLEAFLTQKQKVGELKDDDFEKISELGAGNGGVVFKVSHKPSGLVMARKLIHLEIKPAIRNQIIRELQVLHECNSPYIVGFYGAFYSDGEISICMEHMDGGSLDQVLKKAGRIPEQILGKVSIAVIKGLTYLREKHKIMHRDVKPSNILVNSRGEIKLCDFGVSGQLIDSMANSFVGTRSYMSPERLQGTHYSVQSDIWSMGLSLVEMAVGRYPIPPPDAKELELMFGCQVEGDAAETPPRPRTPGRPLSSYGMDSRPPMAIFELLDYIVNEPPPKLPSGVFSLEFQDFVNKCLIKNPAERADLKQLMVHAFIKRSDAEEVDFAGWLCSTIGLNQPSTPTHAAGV
Sequence of SRSF protein kinase 1 (Homo sapiens) (Q96SB4 whole entry): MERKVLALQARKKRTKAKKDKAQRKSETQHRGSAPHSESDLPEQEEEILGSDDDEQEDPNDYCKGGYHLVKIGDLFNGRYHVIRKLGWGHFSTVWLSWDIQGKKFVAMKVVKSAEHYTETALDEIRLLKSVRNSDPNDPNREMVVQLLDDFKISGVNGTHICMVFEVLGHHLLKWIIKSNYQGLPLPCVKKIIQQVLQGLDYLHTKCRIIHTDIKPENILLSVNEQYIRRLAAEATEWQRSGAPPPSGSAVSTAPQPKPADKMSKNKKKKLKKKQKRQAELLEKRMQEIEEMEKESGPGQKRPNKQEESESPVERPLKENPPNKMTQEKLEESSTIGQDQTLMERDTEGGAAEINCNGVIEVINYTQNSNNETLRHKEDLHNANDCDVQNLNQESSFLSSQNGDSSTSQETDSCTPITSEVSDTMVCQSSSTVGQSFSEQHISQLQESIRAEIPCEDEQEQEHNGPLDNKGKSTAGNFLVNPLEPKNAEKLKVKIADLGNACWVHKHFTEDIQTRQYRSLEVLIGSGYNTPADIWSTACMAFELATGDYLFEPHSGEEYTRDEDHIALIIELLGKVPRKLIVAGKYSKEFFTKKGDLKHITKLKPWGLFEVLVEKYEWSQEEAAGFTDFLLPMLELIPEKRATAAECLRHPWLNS
Sequence of Serine/threonine-protein kinase pim-1 (Homo sapiens) (P11309 whole entry, looked up): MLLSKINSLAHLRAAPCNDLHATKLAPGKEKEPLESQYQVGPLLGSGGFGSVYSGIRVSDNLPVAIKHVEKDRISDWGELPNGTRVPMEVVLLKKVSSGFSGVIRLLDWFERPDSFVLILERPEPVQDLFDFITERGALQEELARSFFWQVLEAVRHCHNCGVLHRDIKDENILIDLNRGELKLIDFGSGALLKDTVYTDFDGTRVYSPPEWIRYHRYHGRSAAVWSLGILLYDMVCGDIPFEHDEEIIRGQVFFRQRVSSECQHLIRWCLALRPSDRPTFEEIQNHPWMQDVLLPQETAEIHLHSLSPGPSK
Sequence of Mitogen-activated protein kinase kinase kinase 9 (Homo sapiens) (P80192 whole entry, looked up): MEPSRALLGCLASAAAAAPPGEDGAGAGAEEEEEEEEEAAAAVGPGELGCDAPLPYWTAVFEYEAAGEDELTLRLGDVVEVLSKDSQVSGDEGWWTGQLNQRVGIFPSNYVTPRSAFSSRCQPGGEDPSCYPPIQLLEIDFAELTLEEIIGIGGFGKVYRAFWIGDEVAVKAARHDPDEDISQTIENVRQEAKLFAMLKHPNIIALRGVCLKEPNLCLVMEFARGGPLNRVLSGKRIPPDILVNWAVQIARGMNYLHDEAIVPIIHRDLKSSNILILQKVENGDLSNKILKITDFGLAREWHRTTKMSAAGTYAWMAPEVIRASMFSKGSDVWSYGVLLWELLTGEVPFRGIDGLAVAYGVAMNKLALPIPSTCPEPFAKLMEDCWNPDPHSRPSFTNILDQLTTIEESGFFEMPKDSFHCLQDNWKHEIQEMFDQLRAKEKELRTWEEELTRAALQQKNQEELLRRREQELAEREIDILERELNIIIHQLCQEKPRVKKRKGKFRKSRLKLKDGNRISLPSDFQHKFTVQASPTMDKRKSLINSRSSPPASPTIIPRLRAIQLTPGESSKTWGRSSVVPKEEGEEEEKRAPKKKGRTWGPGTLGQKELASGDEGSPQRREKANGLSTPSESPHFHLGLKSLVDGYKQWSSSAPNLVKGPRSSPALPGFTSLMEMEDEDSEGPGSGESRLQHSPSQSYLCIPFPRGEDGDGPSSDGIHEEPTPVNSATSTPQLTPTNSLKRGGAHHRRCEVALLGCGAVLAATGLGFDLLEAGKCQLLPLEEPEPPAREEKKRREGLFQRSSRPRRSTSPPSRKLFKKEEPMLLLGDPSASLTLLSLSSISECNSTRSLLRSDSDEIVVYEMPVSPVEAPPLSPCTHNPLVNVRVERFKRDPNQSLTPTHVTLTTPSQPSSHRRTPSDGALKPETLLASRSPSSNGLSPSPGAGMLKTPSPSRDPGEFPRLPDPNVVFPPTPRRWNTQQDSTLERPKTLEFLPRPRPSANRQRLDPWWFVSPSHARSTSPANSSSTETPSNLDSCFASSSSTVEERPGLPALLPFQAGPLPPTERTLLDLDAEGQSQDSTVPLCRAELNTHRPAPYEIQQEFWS
Sequence of Serine/threonine-protein kinase PAK 2 (Homo sapiens) (Q13177 whole entry): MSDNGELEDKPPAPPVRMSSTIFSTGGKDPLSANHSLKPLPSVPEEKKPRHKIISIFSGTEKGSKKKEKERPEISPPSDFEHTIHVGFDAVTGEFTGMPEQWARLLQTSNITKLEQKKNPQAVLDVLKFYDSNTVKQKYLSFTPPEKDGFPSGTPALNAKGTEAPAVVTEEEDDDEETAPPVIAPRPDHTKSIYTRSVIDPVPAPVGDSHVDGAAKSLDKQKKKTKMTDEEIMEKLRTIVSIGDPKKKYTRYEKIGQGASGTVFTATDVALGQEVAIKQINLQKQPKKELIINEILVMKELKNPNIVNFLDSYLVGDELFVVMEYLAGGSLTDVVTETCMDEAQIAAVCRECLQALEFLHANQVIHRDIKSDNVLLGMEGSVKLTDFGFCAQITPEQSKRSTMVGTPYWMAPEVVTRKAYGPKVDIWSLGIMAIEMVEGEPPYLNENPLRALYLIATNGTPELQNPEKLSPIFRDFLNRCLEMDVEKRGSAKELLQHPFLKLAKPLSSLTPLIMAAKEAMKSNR

`CNC(=O)Cn1cc(-c2cc3c(N[C@@H](c4ccc5c(c4)S(=O)(=O)CCC5)C(C)C)ncnc3[nH]2)cn1` showed an Activity [1] of 97%, an Activity [2] of 101% and an Activity [3] of 111%. For the same compound, the Activity [4] was 97%, the Activity [5] was 89% and the Activity [6] was 104%. For the same compound, the Activity [7] was 103%, the Activity [8] was 97% and the Activity [9] was 94%. It also gave an Activity [10] of 100%.
With `CC(C)[C@@H](Nc1ncnc2[nH]c(C(=O)N[C@@H]3CCN(C)C3)cc12)c1ccc2c(c1)S(=O)(=O)CCC2` the Activity [1] was 86%, the Activity [2] was 105% and the Activity [3] was 108%. The Activity [4] was 107%, the Activity [5] was 96% and the Activity [6] was 103%. It also gave an Activity [7] of 99%, an Activity [8] of 97% and an Activity [9] of 108%. For the same compound, the Activity [10] was 99%.
`CC(C)[C@@H](Nc1ncnc2[nH]ccc12)c1ccc2c(c1)S(=O)(=O)CCC2` showed an Activity [1] of 91%, an Activity [2] of 88% and an Activity [3] of 105%. For the same compound, the Activity [4] was 97%, the Activity [5] was 81% and the Activity [6] was 102%. It also gave an Activity [7] of 110%, an Activity [8] of 80% and an Activity [9] of 105%. It also gave an Activity [10] of 101%.
With `COc1ccc([C@@H](Cc2nnn[nH]2)NC(=O)c2ncnc3[nH]ccc23)cc1` the Activity [1] was 88%, the Activity [2] was 91% and the Activity [3] was 92%. The Activity [4] was 92%, the Activity [5] was 85% and the Activity [6] was 95%. For the same compound, the Activity [7] was 102%, the Activity [8] was 91% and the Activity [9] was 102%. For the same compound, the Activity [10] was 102%.
Compound `CC(C)[C@H](Nc1ncnc2[nH]ccc12)c1ccc2c(c1)S(=O)(=O)CCC2` has an Activity [1] of 86%, an Activity [2] of 112% and an Activity [3] of 106%. For the same compound, the Activity [4] was 94%, the Activity [5] was 84% and the Activity [6] was 99%. It also gave an Activity [7] of 102%, an Activity [8] of 91% and an Activity [9] of 100%. The Activity [10] was 100%.
For `CC(C)[C@@H](Nc1ncnc2[nH]c(-c3cnn(C)c3C#N)cc12)c1ccc2c(n1)OCCO2`, the Activity [1] was 75% and 91%, the Activity [2] was 100% and 99% and the Activity [3] was 98% and 114%. For the same compound, the Activity [4] was 99% and 103%, the Activity [5] was 81% and 82% and the Activity [6] was 83% and 102%. The Activity [7] was 95% and 99%, the Activity [8] was 79% and 99% and the Activity [9] was 92% and 104%. The Activity [10] was 92% and 84%.
In the case of `CC(C)[C@H](Nc1ncnc2[nH]c(-c3cnn(C)c3C#N)cc12)c1ccc2c(n1)OCCO2`, the Activity [1] is reported as 89%, the Activity [2] is reported as 106% and the Activity [3] is reported as 115%. The Activity [4] was 97%, the Activity [5] was 73% and the Activity [6] was 104%. For the same compound, the Activity [7] was 99%, the Activity [8] was 98% and the Activity [9] was 111%. It also gave an Activity [10] of 86%.
`Cn1ncc(-c2cc3c(N[C@@H](c4ccc5c(n4)OCCO5)C(C)(C)C)ncnc3[nH]2)c1C#N` gave an Activity [1] of 115%, an Activity [2] of 132% and an Activity [3] of 110%. For the same compound, the Activity [4] was 98%, the Activity [5] was 94% and the Activity [6] was 105%. The Activity [7] was 111%, the Activity [8] was 107% and the Activity [9] was 117%. It also gave an Activity [10] of 91%.
Work on `CNCc1cc(-c2cc3c(N[C@@H](c4ccc5c(c4)S(=O)(=O)CCC5)C(C)C)ncnc3[nH]2)co1` yielded an Activity [1] of 92%, an Activity [2] of 100% and an Activity [3] of 106%. For the same compound, the Activity [4] was 97%, the Activity [5] was 86% and the Activity [6] was 105%. The Activity [7] was 94%, the Activity [8] was 93% and the Activity [9] was 101%. For the same compound, the Activity [10] was 92%.
Compound `Cc1nn(C)cc1-c1cc2c(N[C@H](c3ccc4c(c3)S(=O)(=O)CCC4)C(C)C)ncnc2[nH]1` has an Activity [1] of 98%, an Activity [2] of 107% and an Activity [3] of 110%. It also gave an Activity [4] of 99%, an Activity [5] of 79% and an Activity [6] of 96%. The Activity [7] was 100%, the Activity [8] was 95% and the Activity [9] was 104%. The Activity [10] was 105%.
With `COc1ccc([C@H](Cc2nnn[nH]2)NC(=O)c2ncnc3[nH]ccc23)cc1` the Activity [1] was 106%, the Activity [2] was 109% and the Activity [3] was 102%. For the same compound, the Activity [4] was 100%, the Activity [5] was 87% and the Activity [6] was 97%. For the same compound, the Activity [7] was 107%, the Activity [8] was 99% and the Activity [9] was 103%. The Activity [10] was 97%.
Work on `C[C@H](C(=O)O)[C@@H](NC(=O)c1ncnc2[nH]ccc12)c1ccc(Br)cc1` yielded an Activity [1] of 105%, an Activity [2] of 106% and an Activity [3] of 98%. The Activity [4] was 89%, the Activity [5] was 86% and the Activity [6] was 100%. The Activity [7] was 95%, the Activity [8] was 95% and the Activity [9] was 97%. It also gave an Activity [10] of 97%.

From ChEMBL document CHEMBL5442741, “ASAP - In vitro kinase profile” (2024)
